Legend:
[1] = system: monodeiodinase type 2 mRNA; experiment: Northern blot, monodeiodinase type 2 mRNA in pituitary; format: in vivo, rat; details: FIG. 5b, compared with T4, p=0.001
Method: (§1) Seventy-nine male SIVZ rats were purchased from the breeder (Institut für Labortierkunde des Universität Zürich, Zürich, Switzerland). They were rendered hypothyroid by a single injection of [^131I]Na (100 μCi/rat) and before and throughout the experiment 0.02% 2-mercapto-1-methylimidazol (MMI) was added to drinking water. In order to have an euthyroid control group of similar weight and identical age, 10 rats received only MMI in the drinking water and 2 weeks before implanting the minipumps, MMI was withdrawn. Osmotic minipumps (secretion rate 0.25 μl/hour, duration 14 days) were implanted intraperitoneally (i.p.) 2 months after the injection of [^131I]Na. The minipumps were filled with T4 or Tetrac dissolved in 0.05 N NaOH, 2% BSA and 100,000 cpm [^125I]T4 or [^125I]Tetrac as control of their secretion rates. The infusion lasted 13 days. 0, 1.5, 4.5, 13.5 and 40.5 nmol Tetrac/day/100 g or 0.5, 1.5, 4.5 and 13.5 nmol T4/day/100 g bodyweight (BW) (n=4/dose) were infused. An euthyroid control group was included. The animals were weighed every 2 days. […]
(§2) The amount of labeled mRNA was quantified by scanning laser densitometry (Phosphorimager, Molecular Dynamics; Sunnyvale, USA). Variations in RNA loading and membrane transfer were corrected by densitometric quantification of a negative photograph of 28S and 18S ribosomal RNA bands from ethidium bromide stained RNA gels. […]

Cynomologus monkeys = system: Cynomologus monkeys
Method: Preparation of Tetrac for injection. Tetrac from Rhône-Poulenc and Henning Laboratory were compared. Tetrac powder was dissolved in sterile 0.1 N NaOH at 2 mg/ml. This solution was made before the beginning of each treatment period and stored at 4° C. in polypropylene tubes, protected from light. Each solution for injection was prepared daily after dilution in the vehicle (0.9% NaCl) containing 5% monkey serum (v/v), and was stored at room temperature and protected from light, according to the storage conditions of the test substance.
Animals. One male and one female purpose bred Cynomologus monkeys Macaca fascicularis were supplied by Centre de Recherches Primatologiques, Port Louis, Mauritius. […] The animals were individually housed in stainless steel cages and a metallic tray was placed under each cage in order to collect urine. The animals were fed daily with approximately 200 grams each of U.A.R. 107 C pelleted diet (batch Nos. 61106, 61207 and 70317, U.A.R., Villemoisson-sur-Orge, France), distributed about 2 hours after treatment with Tetrac. No contaminants were known to have been present in the diet, drinking water or bedding material at levels which may be expected to have interfered with or prejudiced the outcome of the study.
Weeks 1 to 3 and weeks 7 to 9: the animals received the test substance TETRAC provided either by Rhone-Poulenc or by Henning Laboratories over a three-week period.
Weeks 4 to 6 and weeks 10 to 12: a washout period of three weeks was observed.
Administration of Tetrac. Tetrac was administered via intramuscular injection into the thigh muscle once a day, at approximately the same time each day, several days a week over a three week period. The quantity of tetrac administered to each animal was adjusted according to the most recently recorded body weight. A constant dosage-volume of 0.5 ml/kg was used.
Morbidity and mortality. The animals were checked at least twice a day, for mortality and signs of morbidity.
Body weight. Body weight was recorded for each animal once before the beginning of the treatment period, on the first day of the treatment period, and at least once a week until the end of the study.
Food consumption. Food consumption was estimated for each animal by calculating the difference between the quantity given and that remaining the next morning. This was estimated daily during the week before treatment and throughout the study. Food consumption was expressed as a percentage of the quantity given. Whenever fasting was required, the food was removed at the end of the day and the estimation of consumption was made at that time, food being made available for approximately five hours on that day.

SERCA 2a mRNA = experiment: Northern blot, SERCA 2a mRNA in heart; format: in vivo, rat; details: FIG. 2b, compared to T4, p<0.001
Method: as §1, §2

TSH [2] = experiment: Serum TSH in hypothyroid rats infused with Tetrac or T4; format: in vivo, rat; details: for Serum TSH: hypothyroid rats, mean ± SEM
Method: Seventy-nine male SIVZ rats were purchased from the breeder (Institut für Labortierkunde des Universität Zürich, Zürich, Switzerland). […] The infusion lasted 13 days. […] An euthyroid control group was included. The animals were weighed every 2 days. Rats were sacrificed by decapitation and blood was collected and stored at […] until use. Tissues (liver, heart, brown adipose tissue, cerebral cortex and pituitary) were removed rapidly, frozen in liquid nitrogen and stored at […] until use.
Hornone assays. […] Endocrinol. […] Serum TSH measurements were performed with reagents kindly provided by the National Pituitary Program, NIAMDD, NIH (Bethesda, USA).

TSH [3] = experiment: Suppression of TSH by Tetrac in humans
Method: A patient receiving 200 μg/day dose of T4 was withdrawn from T4 treatment and treated with Tetrac for 21 days with a dose of 2100 μg/day.

SMILES: O=C(O)Cc1cc(I)c(Oc2cc(I)c(O)c(I)c2)c(I)c1 [Tetrac, 3,3′,5,5′-tetraiodothyroacetic acid]
- Inhibition of the mRNA levels of monodeiodinase type 2 (in words) [1]: clearly less efficient
- Clinical signs (Cynomologus monkeys; 75 μg/kg/day intramuscular, treatment or washout periods): No clinical signs were observed
- Body weight gain (in words) (Cynomologus monkeys; Female, two treatment periods compared to washout periods): slightly higher body weight gain
- Food consumption (in words) (Cynomologus monkeys; Male): unaffected
- SERCA 2a mRNA levels, response to increasing doses (in words) (SERCA 2a mRNA): weak response
- Serum TSH (TSH [2]; infusion 1.5 nmol/day/100 g BW): 90.3 ± 8.6 ng/mL
- Serum TSH (TSH [2]; infusion 4.5 nmol/day/100 g BW): 4.6 ± 0.5 ng/mL
- Serum TSH (TSH [2]; infusion 13.5 nmol/day/100 g BW): 1.2 ± 0.3 ng/mL
- Serum TSH (TSH [2]; infusion 40.5 nmol/day/100 g BW): <0.8 ng/mL
- Serum TSH concentration, mean of treatment group (TSH [2]; mean over all dose levels of the treated rats, p=<0.04): 24 ng/mL
- TSH after treatment (TSH [3]; one patient withdrawn from T4, Tetrac 2100 μg/day, after 21 days): 6.3 mU/L
- TSH before treatment (after T4 withdrawal) (TSH [3]; same patient, start of Tetrac treatment): 151.0 mU/L

From patent US6740680B1, “Pharmaceutical compositions to tetrac and methods of use thereof” (Becton Pharma, Inc., priority 1999, dated 2004)
